Publication PMC2765639 (PLoS Neglected Tropical Diseases, 2009)
Like-named read-outs stand apart in the source and are kept apart here.

Tests used:
L. major promastigotes [1] = assay: L. major promastigote drug susceptibility assay (alamar blue, 384-well); format: cell-based, Leishmania major; details: Leishmania major, read-out: EC50 Ave ± SD, Lm
How it was run: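 Exponential-phase promastigotes (5,000/well) were exposed to compound for 44 h at 28°C with 5% CO2. Single-point screening used 10 µM in 1% DMSO, and duplicate 10-point curves spanned 0.01–5.00 µM.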

[2] = system: L. major axenic amastigote-like population; assay: L. major axenic amastigote-like alamar blue assay (pH 4.9); format: cell-based, Leishmania major; details: Leishmania major, 144 h, pH 4.9, read-out: L. major axenic amastigote-like EC50 (AVE±SD) Confirmation Alamar Blue
L. major promastigotes [3] = assay: Flow cytometer-based growth inhibition and cytotoxicity assay; details: Leishmania major, 48 h, read-out: L. major promastigote EC50 (AVE±SD) Confirmation Flow Cytometry
IMR-90 = assay: Mammalian cell line specificity assay (alamar blue); format: cell-based, human; details: Homo sapiens, IMR-90, read-out: IMR90 EC50 (AVE±SD)
How it was run: (§1)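 Cells exposed to compounds for 44–46 h at 37°C, 5% CO2, in 384-well format; 1% DMSO vehicle, 10% DMSO positive control (final). Growth inhibition read after 2–4 h with alamar blue.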

PC-3 = assay: as above; format: cell-based, human; details: Homo sapiens, PC-3, read-out: PC-3 EC50 (AVE±SD)
How it was run: as §1

MDA-MB-231 = assay: as above; format: cell-based, human; details: Homo sapiens, MDA-MB-231, read-out: MDA EC50 (AVE±SD)
How it was run: as §1

HeLa = assay: as above; format: cell-based, human; details: Homo sapiens, HeLa, read-out: HeLa EC50 (AVE±SD)
How it was run: as §1

A549 = assay: as above; format: cell-based, human; details: Homo sapiens
How it was run: as §1

human cell lines = assay: Human cell line panel (A549, HeLa, IMR-90, PC-3, MDA-MB-231); format: cell-based
Description: Mammalian cells were cultured and maintained according to ATCC specifications (ATCC, Manassas, VA). Cell line drug susceptibility assays were performed in final volumes of 25 µL using our previously described 384-well microtiter plate format,[39]. Briefly, for automated HTS procedures, cells (A549, IMR-90 and, HeLa, 1,000 cells; PC-3, 750 cells and; MDA-MB-231, 3,000 cells) in complete culture medium were seeded into each well of 384-well microtiter plates using a Titertek MAPC-2 bulk dispenser. Test and control compounds were added to individual wells as described above. Vehicle and positive controls were 1% DMSO and 10% DMSO, respectively (final well concentrations). Assay plates were incubated for 44–46 h at 37°C in the presence of 5% CO2 and growth inhibitory effects were determined as described above. Five µL of alamar blue reagent was added to each well and incubated for 2–4 h. Data were captured as described above.

Question: What does the source list for `NC(=O)c1cn([C@@H]2O[C@H](CO)[C@@H](O)[C@H]2O)c2ncnc(N)c12` [Sangivamycin, reference compound]?
Answer: EC50 (L. major promastigotes [1]): 164 ± 11 nM; EC50 [2]: 4300 ± 300 nM; EC50 (L. major promastigotes [3]): 140 ± 20 nM; EC50 (IMR-90): > 50000 nM; EC50 (PC-3): > 50000 nM; EC50 (MDA-MB-231): > 50000 nM; EC50 (HeLa): > 50000 nM; EC50 (A549; A549, read-out: A549 EC50 (AVE±SD)): 70 ± 20 nM; EC50 (A549; A549, read-out: EC50 Ave ± SD, A549): 72 ± 5 nM; growth inhibition of human cell lines tested (human cell lines): inhibited the growth of human cell lines tested
